Data reported in the supplement of paper PMC10307832.

Legend:
Experiment in all cases: relative viability (nuclei count vs DMSO), 5 days (fraction); higher = more cells survive
[1] = compound: CC1=CC(=NN1)NC2=CC(=NC(=N2)/C=C/C3=CC=CC=C3)N4CCN(CC4)C + Nc1nc2[nH]cc(CCc3ccc(C(=O)N[C@@H](CCC(=O)O)C(=O)O)cc3)c2c(=O)[nH]1 [Pemetrexed] (partner 0.2 µM)
Procedure, shortened: (§1)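 Lung cancer cell lines in 1536-well plates were dosed by pin tool the day after seeding, either with one drug alone or with a fixed anchor-drug dose plus five library-drug doses (not always all listed) in √10 steps. After 5 days, cells were fixed and their nuclei stained in one step (final 0.05% Triton X-100, 1% formaldehyde, 1 ug/ml Hoechst), then counted on 4× images. Relative viability is the nuclei count in treated wells divided by that in vehicle wells. Values are medians of duplicate plates.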

Obatoclax + Luminespib = compound: COC1=CC(c2cc3ccccc3[nH]2)=N/C1=C\c1[nH]c(C)cc1C [Obatoclax] + CCNC(=O)c1noc(-c2cc(C(C)C)c(O)cc2O)c1-c1ccc(CN2CCOCC2)cc1 [Luminespib] (partner 0.01 µM)
Procedure, shortened: as §1

Obatoclax + Crizotinib = compound: COC1=CC(c2cc3ccccc3[nH]2)=N/C1=C\c1[nH]c(C)cc1C [Obatoclax] + C[C@@H](Oc1cc(-c2cnn(C3CCNCC3)c2)cnc1N)c1c(Cl)ccc(F)c1Cl [Crizotinib] (partner 1 µM)
Procedure, shortened: as §1

Obatoclax + Dasatinib = compound: COC1=CC(c2cc3ccccc3[nH]2)=N/C1=C\c1[nH]c(C)cc1C [Obatoclax] + Cc1nc(Nc2ncc(C(=O)Nc3c(C)cccc3Cl)s2)cc(N2CCN(CCO)CC2)n1 [Dasatinib] (partner 0.075 µM)
Procedure, shortened: as §1

Row | Cell Line | relative viability ([1]; first compound 0.08 µM) | relative viability ([1]; first compound 0.253 µM) | relative viability ([1]; first compound 0.8 µM) | relative viability ([1]; first compound 2.53 µM) | relative viability ([1]; first compound 8 µM) | relative viability (Obatoclax + Luminespib; first compound 0.01 µM) | relative viability (Obatoclax + Luminespib; first compound 0.03162 µM) | relative viability (Obatoclax + Luminespib; first compound 0.1 µM) | relative viability (Obatoclax + Luminespib; first compound 0.3162 µM) | relative viability (Obatoclax + Luminespib; first compound 1 µM) | relative viability (Obatoclax + Crizotinib; first compound 0.01 µM) | relative viability (Obatoclax + Crizotinib; first compound 0.03162 µM) | relative viability (Obatoclax + Crizotinib; first compound 0.1 µM) | relative viability (Obatoclax + Crizotinib; first compound 0.3162 µM) | relative viability (Obatoclax + Crizotinib; first compound 1 µM) | relative viability (Obatoclax + Dasatinib; first compound 0.01 µM) | relative viability (Obatoclax + Dasatinib; first compound 0.03162 µM) | relative viability (Obatoclax + Dasatinib; first compound 0.1 µM) | relative viability (Obatoclax + Dasatinib; first compound 0.3162 µM) | relative viability (Obatoclax + Dasatinib; first compound 1 µM)
1 | LOU-NH91 | 0.383 | 0.389 | 0.391 | 0.394 | 0.361 | 0.351 | 0.367 | 0.345 | 0.265 | 0.294 | 0.768 | 0.628 | 0.703 | 0.874 | 0.759 | 0.557 | 0.511 | 0.379 | 0.486 | 0.51
2 | NCI-H2228 | 0.306 | 0.309 | 0.276 | 0.0818 | 0.055 | 0.164 | 0.109 | 0.138 | 0.113 | 0.186 | 0.404 | 0.488 | 0.464 | 0.299 | 0.233 | 0.499 | 0.595 | 0.571 | 0.351 | 0.148
3 | NCI-H358 | 0.163 | 0.172 | 0.173 | 0.128 | 0.0753 | 0.395 | 0.245 | 0.449 | 0.351 | 0.161 | 0.46 | 0.57 | 0.592 | 0.374 | 0.352 | 0.142 | 0.193 | 0.218 | 0.132 | 0.114
4 | NCI-H2405 | 1.02 | 0.979 | 1.04 | 0.503 | 0.162 | 0.606 | 0.67 | – | 0.782 | 0.735 | 0.821 | 0.832 | – | 0.826 | 0.867 | 0.218 | 0.197 | – | 0.205 | 0.22
5 | 201T | 0.31 | 0.318 | 0.376 | 0.327 | 0.298 | 1.1 | 1.04 | 1.06 | 1.08 | 1.12 | 1.01 | 1.03 | 1.04 | 0.996 | 1.06 | 0.599 | 0.412 | 0.588 | 0.569 | 0.6
6 | CAL-12T | 1.09 | 1.25 | 1.16 | 0.56 | 0.159 | 0.493 | 0.292 | 0.273 | 0.122 | 0.118 | 0.511 | 0.797 | 0.492 | 0.382 | 0.105 | 0.419 | 0.414 | 0.426 | 0.0751 | 0.0688
7 | NCI-H1944 | 0.566 | 0.652 | 0.611 | 0.365 | 0.312 | 0.794 | 0.66 | 0.735 | 0.75 | 0.636 | 0.975 | 1.05 | 1.05 | 1.06 | 1.02 | 0.206 | 0.198 | 0.198 | 0.242 | 0.223
8 | SK-MES-1 | 0.908 | 0.995 | 0.89 | 0.213 | 0.162 | 0.737 | 0.837 | 0.677 | 0.298 | 0.252 | 0.97 | 0.953 | 0.978 | 0.959 | 0.81 | 0.356 | 0.48 | 0.394 | 0.362 | 0.267
9 | NCI-H2087 | 0.63 | 0.652 | 0.652 | 0.566 | 0.162 | 0.164 | 0.166 | 0.161 | 0.121 | 0.121 | 0.818 | 0.864 | 0.83 | 0.768 | 0.294 | 0.837 | 0.747 | 0.723 | 0.361 | 0.135
10 | COR-L 105 | 1.23 | 1.13 | 0.945 | 0.351 | 0.29 | 0.97 | 0.908 | 0.724 | 1.75 | 0.236 | 0.802 | 0.959 | 1 | 0.51 | 0.522 | 0.4 | 0.358 | 0.372 | 0.265 | 0.246
11 | LCLC-97TM1 | 0.186 | 0.226 | 0.161 | 0.164 | 0.0709 | 0.734 | 0.563 | 0.788 | 0.761 | 0.532 | 0.452 | 0.27 | 0.339 | 0.329 | 0.358 | 0.928 | 0.746 | 0.916 | 0.842 | 0.682
12 | NCI-H520 | 0.643 | 0.688 | 0.322 | 0.14 | 0.0969 | 0.231 | 0.215 | 0.257 | 0.246 | 0.205 | 0.781 | 0.777 | 0.774 | 0.628 | 0.461 | 0.196 | 0.214 | 0.205 | 0.22 | 0.194
13 | NCI-H1993 | 0.58 | 0.65 | 0.592 | 0.516 | 0.351 | 0.868 | 0.869 | 0.845 | 0.615 | 0.863 | 0.922 | 0.916 | 1.02 | 0.932 | 0.986 | 0.616 | 0.549 | 0.748 | 0.499 | 0.395
14 | NCI-H1437 | 0.422 | 0.325 | 0.295 | 0.212 | 0.162 | 1.09 | 1.17 | 1.04 | 0.983 | 0.956 | 0.804 | 0.857 | 0.861 | 0.896 | 1.03 | 0.559 | 0.295 | 0.384 | 0.355 | 0.445
15 | LC-2-ad | 0.263 | 0.266 | 0.269 | 0.187 | 0.143 | 0.984 | 0.914 | 0.773 | 0.733 | 0.361 | 0.424 | 0.455 | – | 0.412 | 0.425 | 0.696 | 0.504 | 0.507 | 0.394 | 0.463
16 | HARA | 0.234 | 0.252 | 0.252 | 0.165 | 0.175 | 0.889 | 0.827 | 0.728 | 0.692 | 1.05 | 1.01 | 1.03 | 1.1 | 1.05 | 0.382 | 0.226 | 0.233 | 0.335 | 0.358 | 0.255
17 | NCI-H1975 | 0.281 | 0.281 | 0.286 | 0.187 | 0.137 | 0.316 | 0.196 | – | 0.472 | 0.306 | 0.969 | 0.897 | 0.962 | 0.79 | 0.518 | 0.439 | 0.389 | – | 0.351 | 0.153
18 | NCI-H2085 | 0.994 | 0.982 | 0.952 | 0.325 | 0.258 | 0.389 | 0.432 | 0.44 | 0.283 | 0.347 | 0.961 | 0.865 | 0.791 | 0.798 | 0.334 | 0.256 | 0.205 | 0.508 | 0.256 | 0.226
19 | NCI-H3122 | 0.2 | 0.203 | 0.206 | 0.186 | 0.147 | 0.0984 | 0.0854 | 0.0999 | 0.0772 | 0.0894 | 0.274 | 0.28 | 0.288 | 0.272 | 0.274 | 0.925 | 0.843 | 0.798 | 0.674 | 0.766
20 | NCI-H1651 | 0.39 | 0.58 | 0.571 | 0.518 | 0.223 | 0.866 | 0.792 | 1.16 | 0.811 | 0.516 | 0.906 | 0.831 | 0.863 | 0.89 | 0.891 | 0.563 | 0.376 | 0.372 | 0.293 | 0.187
21 | NCI-H441 | 0.24 | 0.25 | 0.273 | 0.221 | 0.137 | 0.416 | 0.316 | 0.278 | 0.223 | 0.236 | 0.676 | 0.742 | 0.724 | 0.604 | 0.549 | 0.537 | 0.634 | 0.542 | 0.402 | 0.208
22 | NCI-H2126 | 0.696 | 0.649 | 0.633 | 0.569 | 0.426 | 0.857 | 0.876 | 0.875 | 0.806 | 0.679 | 1.06 | 0.987 | 0.952 | 1.02 | 0.965 | 0.675 | 0.538 | 0.524 | 0.613 | 0.536
23 | RERF-LC-KJ | 0.439 | 0.484 | 0.484 | 0.397 | 0.224 | 1.07 | 1.32 | 1.04 | 0.583 | 0.554 | 0.739 | 0.821 | 0.804 | 0.794 | 0.749 | 0.796 | 0.894 | 0.701 | 0.745 | 0.513
24 | NCI-H1563 | 0.76 | 0.861 | 0.853 | 0.592 | 0.396 | 0.519 | 0.528 | 0.529 | 0.503 | 0.517 | 0.786 | 0.864 | 0.881 | 0.906 | 0.653 | 0.457 | 0.437 | 0.453 | 0.457 | 0.469
25 | NCI-H1666 | 0.735 | 0.914 | 0.839 | 0.846 | 0.792 | 1.05 | 1.06 | 1.03 | 0.509 | 0.378 | 1.08 | 1.04 | 0.867 | 0.284 | 0.265 | 0.819 | 0.809 | 0.727 | 0.496 | 0.418
26 | PC-14 | 0.14 | 0.134 | 0.15 | 0.0655 | 0.0336 | 0.132 | 0.138 | 0.148 | 0.13 | 0.146 | 0.838 | 0.863 | 0.811 | 0.9 | 0.54 | 0.285 | 0.286 | 0.225 | 0.0723 | 0.0415
27 | NCI-H1915 | 0.523 | 0.553 | 0.452 | 0.37 | 0.137 | 0.725 | 0.664 | 0.749 | 0.713 | 0.796 | 0.898 | 0.835 | 0.864 | 0.877 | 0.901 | 0.314 | 0.271 | 0.318 | 0.329 | 0.282
